ChEMBL document CHEMBL5512688 (J Med Chem, 2024)

Experiments:
[1] = Metabolic stability in mouse liver microsome assessed as parent compound remaining measured at 60 mins by LCMS/MS analysis; assay type: ADME; conditions: liver microsomes, read-out: Stability
LoVo = test: Antiproliferative activity against human LoVo cells assessed as inhibition of cell growth incubated for 72 hrs by CCK-8 method; assay type: functional, cell-based
[2] = Half life in ICR mouse at 60 mg/kg, IG measured upto 24 hrs by LC-MS/MS analysis; assay type: ADME, organism-based; conditions: in vivo, po
Wee1-like protein kinase [3] = molecular target: T1, Wee1-like protein kinase (Homo sapiens, UniProt P30291); test: Inhibition of Wee1 in human U2OS cells assessed as reduction in CDK1 phosphorylation measured for 1 hr by Western blot analysis; assay type: cell-based
T1 sequence (P30291 whole entry): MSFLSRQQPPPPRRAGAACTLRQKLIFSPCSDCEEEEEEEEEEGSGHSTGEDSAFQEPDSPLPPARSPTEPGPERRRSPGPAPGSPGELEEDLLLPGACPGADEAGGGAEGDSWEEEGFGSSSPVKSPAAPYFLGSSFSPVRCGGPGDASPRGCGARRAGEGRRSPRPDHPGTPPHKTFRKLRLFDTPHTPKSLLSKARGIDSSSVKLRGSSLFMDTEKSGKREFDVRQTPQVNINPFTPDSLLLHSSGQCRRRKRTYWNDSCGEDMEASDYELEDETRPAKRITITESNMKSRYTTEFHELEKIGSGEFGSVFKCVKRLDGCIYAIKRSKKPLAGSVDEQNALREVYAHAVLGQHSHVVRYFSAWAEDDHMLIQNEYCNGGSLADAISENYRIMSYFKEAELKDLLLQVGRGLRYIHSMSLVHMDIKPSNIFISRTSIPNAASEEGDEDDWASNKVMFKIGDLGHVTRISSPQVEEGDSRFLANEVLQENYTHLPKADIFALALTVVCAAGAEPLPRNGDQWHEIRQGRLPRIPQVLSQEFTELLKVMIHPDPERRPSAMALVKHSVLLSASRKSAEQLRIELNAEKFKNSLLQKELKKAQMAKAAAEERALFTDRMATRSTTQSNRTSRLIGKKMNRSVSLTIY

[4] = AUC (0 to 24 hrs) in ICR mouse at 1 mg/kg, iv measured upto 24 hrs by LC-MS/MS analysis; assay type: ADME, organism-based; conditions: in vivo
A-427 = test: Antiproliferative activity against human A-427 cells assessed as inhibition of cell growth incubated for 72 hrs by CCK-8 assay; assay type: functional, cell-based; conditions: A-427, 72 h
[5] = Bioavailability in ICR mouse at 60 mg/kg, IG measured upto 24 hrs by LC-MS/MS analysis; assay type: ADME, organism-based; conditions: in vivo, po
[6] = Clearance in ICR mouse at 1 mg/kg, iv measured upto 24 hrs by LC-MS/MS analysis; assay type: ADME, organism-based; conditions: in vivo
Wee1-like protein kinase [7] = molecular target: T1, Wee1-like protein kinase; test: Inhibition of human Wee1 (215 to 647 residues) using polyornithine/tyrosine (4:1) as substrate incubated for 5 mins in presence of ATP by micro beta plate reader analysis
[8] = Volume of distribution in ICR mouse at 1 mg/kg, iv measured upto 24 hrs by LC-MS/MS analysis; assay type: ADME, organism-based; conditions: in vivo
[9] = Half life in ICR mouse at 1 mg/kg, iv measured upto 24 hrs by LC-MS/MS analysis; assay type: ADME, organism-based; conditions: in vivo
[10] = Metabolic stability in human liver microsome assessed as parent compound remaining measured at 60 mins by LCMS/MS analysis; assay type: ADME; conditions: liver microsomes, read-out: Stability
[11] = AUC (0 to 24 hrs) in ICR mouse at 60 mg/kg, IG measured upto 24 hrs by LC-MS/MS analysis; assay type: ADME, organism-based; conditions: in vivo, po

remaining at 1 h [1] [%] | IC50 (Wee1-like protein kinase [7]) [nM] | remaining at 1 h [10] [%] | SMILES | IC50 (A-427) [nM] | also measured
97.1 | 3.7 | 88.9 | C=CCn1c(=O)c2cnc(Nc3ccc(N4CCC(N5CCN(C)CC5)CC4)cc3)nc2n1-c1cccc(-c2ncccn2)n1 | 585 | IC50 (LoVo): 714 nM; half-life [2]: 3.71 h; IC50 (Wee1-like protein kinase [3]): 914 nM; AUC(0-t) at 24 h [4]: 980 ng·h/mL; bioavailability [5]: 55.1%; clearance [6]: 16.8 mL/min/kg; Vd [8]: 3.72 L/kg; half-life [9]: 2.39 h; AUC(0-t) at 24 h [11]: 32400 ng·h/mL
48.2 | 3.2 | 49.8 | C=CCn1c(=O)c2cnc(Nc3ccc(N4CCN(C)CC4)cc3)nc2n1-c1cccc(-c2ncc(F)cn2)n1 | 454 | 
44.7 | 1.8 | 67 | C=CCn1c(=O)c2cnc(Nc3ccc(C4CCN(C)CC4)cc3)nc2n1-c1cccc(-c2cccnn2)n1 | 156 | 
 | 33 |  | CN1CCN(c2ccc(Nc3ncc4c(=O)n(CC5CC5)n(-c5cccc(-c6cnccn6)n5)c4n3)cc2)CC1 | 1870 | 
 | 2 |  | C=CCn1c(=O)c2cnc(Nc3ccc(N4C5CCC4CN(C)C5)cc3)nc2n1-c1cccc(-c2cnccn2)n1 | 603 | 
 | 13.4 |  | C=CCn1c(=O)c2cnc(Nc3ccc(N4CCN(C)CC4)cc3)nc2n1-c1cncc(-c2cnccn2)c1 | 4180 | 
 | 12.6 |  | C=CCn1c(=O)c2cnc(Nc3ccc(N4CCN(C)CC4)cc3)nc2n1-c1cc(-c2cnccn2)ccn1 | 3510 | 
79.4 | 2.1 | 67.3 | C=CCn1c(=O)c2cnc(Nc3ccc(C4CCN(C)CC4)cc3)nc2n1-c1cccc(-c2ncccn2)n1 | 334 | half-life [2]: 3.55 h; AUC(0-t) at 24 h [4]: 236 ng·h/mL; bioavailability [5]: 30.3%; clearance [6]: 69.5 mL/min/kg; Vd [8]: 9.03 L/kg; half-life [9]: 1.51 h; AUC(0-t) at 24 h [11]: 4280 ng·h/mL
 | 2.2 |  | C=CCn1c(=O)c2cnc(Nc3ccc(N4CCN(C)CC4)cc3)nc2n1-c1cccc(-n2nc(C)cc2C)n1 | 955 | 
18.4 | 2.2 | 32.5 | C=CCn1c(=O)c2cnc(Nc3ccc(N4CCN(C)CC4)cc3)nc2n1-c1cccc(-c2cccc(F)n2)n1 | 280 | 
8.82 | 2.4 | 18 | C=CCn1c(=O)c2cnc(Nc3ccc(N4CCN(C)CC4)cc3)nc2n1-c1cccc(-n2cccn2)n1 | 252 | 
 | 2.2 |  | C=CCn1c(=O)c2cnc(Nc3ccc(N4CCN(C)CC4)cc3)nc2n1-c1ccc2ccccc2n1 | 949 | 
99.1 | 0.89 | 90.9 | C=CCn1c(=O)c2cnc(Nc3ccc(N4CCNCC4)cc3)nc2n1-c1cccc(-c2ncccn2)n1 | 320 | AUC(0-t) at 24 h [4]: 199 ng·h/mL; bioavailability [5]: 1.96%; clearance [6]: 82 mL/min/kg; Vd [8]: 5.66 L/kg; half-life [9]: 1.24 h; AUC(0-t) at 24 h [11]: 235 ng·h/mL
83.9 | 2.4 | 51.3 | C=CCn1c(=O)c2cnc(Nc3ccc(N4C[C@@H](C)N[C@@H](C)C4)cc3)nc2n1-c1cccc(-c2ncccn2)n1 | 341 | half-life [2]: 5.42 h; AUC(0-t) at 24 h [4]: 35.5 ng·h/mL; bioavailability [5]: 87.1%; clearance [6]: 427 mL/min/kg; Vd [8]: 60.5 L/kg; half-life [9]: 1.72 h; AUC(0-t) at 24 h [11]: 1850 ng·h/mL
 | 3.4 |  | CC(C)n1c(=O)c2cnc(Nc3ccc(N4CCN(C)CC4)cc3)nc2n1-c1cccc(-c2cnccn2)n1 | 1410 | 
55.1 | 2 | 46.5 | C=CCn1c(=O)c2cnc(Nc3ccc(N4CCN(C)CC4)cc3)nc2n1-c1cccc(-c2cccnn2)n1 | 206 | half-life [2]: 8.65 h; AUC(0-t) at 24 h [4]: 170 ng·h/mL; bioavailability [5]: 41.9%; clearance [6]: 88.2 mL/min/kg; Vd [8]: 11.7 L/kg; half-life [9]: 2.45 h; AUC(0-t) at 24 h [11]: 4270 ng·h/mL
 | 2.5 |  | C=CCn1c(=O)c2cnc(Nc3ccc(N4CCN(C)CC4)cc3)nc2n1-c1cccc(-c2cnn(C(F)F)c2)n1 | 372 | 
23.8 | 3 | 28.6 | C=CCn1c(=O)c2cnc(Nc3ccc(N4C5CCC4CN(C)C5)cc3)nc2n1-c1cccc(-c2cccnn2)n1 | 226 | 
53.1 | 2.5 | 34.8 | C=CCn1c(=O)c2cnc(Nc3ccc(N4CCN(C)CC4)c(OC)c3)nc2n1-c1cccc(-c2cccnn2)n1 | 231 | 
 | 2.4 |  | C=CCn1c(=O)c2cnc(Nc3ccc(N4CCN(C)CC4)cc3)nc2n1-c1cccc(-c2ncc(C#N)cn2)n1 | 342 | 

remaining at 1 h [1] [%] | IC50 (Wee1-like protein kinase [7]) [nM] | remaining at 1 h [10] [%] | SMILES | IC50 (A-427) [nM] | also measured
15.9 | 4.5 | 3.89 | C=CCn1c(=O)c2cnc(Nc3ccc(N4CCN(C)CC4)cc3)nc2n1-c1cccc(-n2cc(F)cn2)n1 | 329 | 
 | 2.6 |  | C=CCn1c(=O)c2cnc(Nc3ccc(N4CCN(C)CC4)cc3)nc2n1-c1cccc(-c2cnn(C)c2)n1 | 616 | 
 | 9.4 |  | C=CCCn1c(=O)c2cnc(Nc3ccc(N4CCN(C)CC4)cc3)nc2n1-c1cccc(-c2cnccn2)n1 | 1050 | 
94.7 | 3.1 | 106 | C=CCn1c(=O)c2cnc(Nc3ccc(N4CCN(CCN(C)C)CC4)cc3)nc2n1-c1cccc(-c2ncccn2)n1 | 556 | 
56.9 | 3.1 | 67.2 | C=CCn1c(=O)c2cnc(Nc3ccc(N4CCN(CCN(C)C)CC4)cc3)nc2n1-c1cccc(-c2cnccn2)n1 | 238 | 
 | 2.4 |  | C=CCn1c(=O)c2cnc(Nc3ccc(N4CCN(C)CC4)cc3)nc2n1-c1ccc2cnn(C(C)C)c2c1 | 315 | 
40.5 | 2.3 | 73.5 | C=CCn1c(=O)c2cnc(Nc3ccc(N4C[C@H]5C[C@@H]4CN5C)cc3)nc2n1-c1cccc(-c2cnccn2)n1 | 226 | 
 | 2.2 |  | C=CCn1c(=O)c2cnc(Nc3ccc(N4CCN(C)CC4)cc3)nc2n1-c1cccc(-c2cnc(Cl)cn2)n1 | 434 | 
 | 4.1 |  | C=CCn1c(=O)c2cnc(Nc3ccc(N4CCN(C)CC4)cc3)nc2n1-c1cccc(-n2ccc(C)n2)n1 | 898 | 
56 | 2.9 | 71.2 | C=CCn1c(=O)c2cnc(Nc3ccc(N4CCN(CCO)CC4)cc3)nc2n1-c1cccc(-c2cnccn2)n1 | 105 | half-life [2]: 4.68 h; AUC(0-t) at 24 h [4]: 74.3 ng·h/mL; bioavailability [5]: 54.9%; clearance [6]: 218 mL/min/kg; Vd [8]: 17 L/kg; half-life [9]: 1.3 h; AUC(0-t) at 24 h [11]: 2440 ng·h/mL
11.2 | 3.7 | 6.06 | C=CCn1c(=O)c2cnc(Nc3ccc(N4CCN(C)CC4)cc3)nc2n1-c1cccc(-n2cc(C)cn2)n1 | 221 | 
17.8 | 1.7 | 44.1 | C=CCn1c(=O)c2cnc(Nc3ccc(N4C[C@@H](C)N[C@@H](C)C4)cc3)nc2n1-c1cccc(-c2cnccn2)n1 | 232 | 
 | 16 |  | COCCn1c(=O)c2cnc(Nc3ccc(N4CCN(C)CC4)cc3)nc2n1-c1cccc(-c2cnccn2)n1 | 512 | 
65.8 | 1.4 | 81 | C=CCn1c(=O)c2cnc(Nc3ccc4c(c3)CNCC4)nc2n1-c1cccc(-c2ncccn2)n1 | 283 | 
18.6 | 3.8 | 7.35 | C=CCn1c(=O)c2cnc(Nc3ccc(N4CCN(C)CC4)cc3)nc2n1-c1cccc(-n2cnc(C)c2)n1 | 347 | 
13.4 | 2.4 | 30.7 | C=CCn1c(=O)c2cnc(Nc3ccc(N4CCN(C)CC4)cc3)nc2n1-c1cccc(-c2cc(F)ccn2)n1 | 240 | 
18.1 | 1.8 | 29.7 | C=CCn1c(=O)c2cnc(Nc3ccc(N4CCN(C)CC4)cc3)nc2n1-c1cccc(-c2ccc(F)cn2)n1 | 327 | 
39.4 | 2.3 | 42.2 | C=CCn1c(=O)c2cnc(Nc3ccc4c(c3)CN(C)CC4)nc2n1-c1cccc(-c2cccnn2)n1 | 245 | 
 | 2.1 |  | C=CCn1c(=O)c2cnc(Nc3ccc(N4CCN(C)CC4)cc3)nc2n1-c1ccc2ncn(C(C)C)c2c1 | 310 | 
87.1 | 2.1 | 74.1 | C=CCn1c(=O)c2cnc(Nc3ccc(N4C[C@@H](C)N[C@@H](C)C4)cc3)nc2n1-c1cccc(-c2cccnn2)n1 | 240 | AUC(0-t) at 24 h [4]: 86.7 ng·h/mL; bioavailability [5]: 0.4%; clearance [6]: 178 mL/min/kg; Vd [8]: 20.3 L/kg; half-life [9]: 1.56 h; AUC(0-t) at 24 h [11]: 20.8 ng·h/mL
